The source of these data is patent US20080064679A1, “Water Soluble Cannabinoids” (priority 2004, published 2008).

One experiment has as its target T1, human CB2 receptor (Homo sapiens, UniProt P34972).
T1 construct: expressed in transfected cells; b94 says HEK for CB2
Briefly: CB2 receptor binding, [3H]CP55,940 displacement in membranes of transfected cells. To be noted: mean±SEM, read-out: CB2 Ki. The method, then: cLogP calculations. Absolute solubility determinations were not performed. Rather, cLogP calculations were performed using the CS ChemDraw Ultra software (Cambridge Soft Corporation, Cambridge, Mass.). Receptor Binding. HEK-293 cells stably expressing the human CB1 receptor were cultured in DMEM with 10% FBS and Chinese Hamster Ovary (CHO) cells stably expressing the human CB2 receptor were cultured in DMEM with 10% FCS. Cells were harvested by replacement of the media with cold phosphate-buffered saline containing 1 mM EDTA followed by centrifugation at 1000×g for 5 min at 4° C. The pellet was resuspended in 50 mM Tris-HCl containing 320 mM sucrose, 2 mM EDTA and 5 mM MgCl2 (pH 7.4) (centrifugation buffer), then centrifuged at 1000×g for 10 min at 4° C., and the resulting supernatant was saved. This process was repeated twice. The supernatant fractions were combined and centrifuged at 40,000×g for 30 min at 4° C. The resulting P2 pellet was resuspended in assay buffer (50 mM Tris-HCl (pH 7.4), 3 mM MgCl2, 0.2 mM EGTA, and 100 mM NaCl) and protein was determined by the method of Bradford ENRfu(Bradford 1976). Membranes were stored at −80° C. until use. […] The assay was incubated at 30° C. for 1 hr and terminated by addition of ice cold 50 mM Tris-HCl plus BSA (1 mg/ml) (pH 7.4) followed by filtration under vacuum through Whatman GF/B glass fiber filters with 3 washes with cold Tris buffer. Bound radioactivity was determined by liquid scintillation spectrophotometry at 50% efficiency after extraction by shaking samples for 30-60 min with Budget-Solve scintillation fluid. Data are reported as the mean±SEM of three experiments, each performed in triplicate. Ki values were calculated from displacement data using EBDA (Equilibrium Binding Data Analysis; BIOSOFT, Milltown, N.J.). [^35S]GTPγS Binding Assays. Concentration-effect curves were generated by incubating membranes (10 μg prepared from CB1 expressing cells as described above) in assay buffer containing BSA (1 mg/ml) with various concentrations of test compounds in the presence of 20 μM GDP and 0.1 nM [^35S]GTPγS in a 1 ml total volume. […] Basal binding was assessed in the absence of agonist, and nonspecific binding was measured in the presence of 10 μM GTPγS. The reaction was incubated for 90 min at 30° C. and terminated by filtration under vacuum through Whatman GF/B glass fiber filters with 3 washes with cold (4° C.) Tris buffer (50 mM Tris-HCl, pH 7.4). Bound radioactivity was determined by liquid scintillation spectrophotometry at 95% efficiency after extraction overnight in ScintiSafe Econo 1 scintillation fluid. Data are reported as mean±SEM of three experiments, each performed in triplicate. Nonlinear regression analysis was conducted by iterative fitting using JMP (SAS for Macintosh). Net-stimulated [^35S]GTPγS binding is defined as [^35S]GTPγS binding in the presence of drug minus basal and percent stimulation is expressed as (net stimulated [^35S]GTPγS binding/basal)×100%. Behavioral Evaluations. All animals were allowed to acclimate to the observation room overnight. Behavioral effects were assessed in the tetrad model in order to measure potency in producing antinociception, catalepsy, hypothermia, and hypomobility. The baselines for tail-flick latency (2-4 seconds) and rectal temperature were determined prior to i.v. injections. Baseline rectal temperatures were measured using a telethermometer and a thermometer probe inserted to 25 mm (Yellow Springs Instrument Co., Yellow Springs, Ohio). The mice were then given either an i.v. i.c.v. injection of the analog. The mice were placed in individual photocell activity chambers 5 min later. Spontaneous activity was monitored for 10 min in a Digiscan Animal Activity Monitor (Omnitech Electronice, Inc., Columbus, Ohio) as measured by the number of interruptions of 16 photocell beams per chamber. The total number of beam interruptions during the 10-min period was determined and presented as total counts.

Experiment [1] relates to mice. Description: Tail-flick antinociception (T.F.), mouse tetrad. The format is in vivo. To be noted: mice; for ED50: Mus musculus, read-out: T.F. ED50 (antinociception in the tail-flick procedure).
The test system of experiment [2] is mice. Description: Rectal temperature (R.T.), mouse tetrad. The format is in vivo. To be noted: for ED50: Mus musculus, read-out: R.T. ED50 (lowering rectal temperature).
Experiment [3] concerns mice. Briefly: Relative immobility (R.I.), ring-immobility test, mouse tetrad. It is filed as in vivo. To be noted: for ED50: Mus musculus, read-out: R.I. ED50 (relative immobility).
Setting [4] is: iv, i.v., vehicle E:E:S (1:1:18).
Setting [5] is: Table 4b, vehicle not indicated.

Usually Ki stands for the dissociation constant of the complex between target and ligand, obtained from inhibition or displacement. What is called ED50 is the dose that gives a 50% effect, or the effect in half of the subjects.

Where two headings read alike, the source gives them in different places.

T1 sequence (P34972 whole entry): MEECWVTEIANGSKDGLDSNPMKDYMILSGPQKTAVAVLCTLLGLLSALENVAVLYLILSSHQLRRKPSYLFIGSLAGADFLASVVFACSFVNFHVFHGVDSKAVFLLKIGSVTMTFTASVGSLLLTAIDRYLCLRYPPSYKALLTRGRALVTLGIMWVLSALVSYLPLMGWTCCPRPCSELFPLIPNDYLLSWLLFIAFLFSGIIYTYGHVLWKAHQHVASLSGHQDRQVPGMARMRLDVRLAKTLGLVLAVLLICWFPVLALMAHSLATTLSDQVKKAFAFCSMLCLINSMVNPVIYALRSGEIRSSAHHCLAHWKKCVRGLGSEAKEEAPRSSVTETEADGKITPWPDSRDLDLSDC

Turning to `CC1=CC[C@@H]2[C@@H](C1)c1c(O)cc(C(C)(C)CCCCC(=O)N3CCCC3)cc1OC2(C)C` [O-2399, Pyrrolidino-carboxamido], the Ki at human CB2 receptor (Table 1B) was determined as 2.86 ± 0.68 nM. The median effective dose (ED50) with mice [1] (setting [4]) is 0.1 µmol/kg; in the experiment with mice [2] (iv, vehicle E:E:S (1:1:18)) it was 0.23 µmol/kg; in the experiment on mice [3] (iv, vehicle E:E:S (1:1:18)), 0.15 µmol/kg.
For the compound “1-(2-methyl-4-N-piperidinobutyryloxy) [O-2374]”, the Ki at human CB2 receptor (Tables 2b, 3b, 4a) stood at 1.1 ± 0.1 nM. In addition, the “T.F. ED50 (antinociception in the tail-flick procedure)” value in the experiment on mice [1] (i.v., vehicle saline) was 0.41 µmol/kg. The “R.T. ED50 (lowering rectal temperature)” value in the experiment on mice [2] (i.v., vehicle saline) was 0.72 µmol/kg. Moreover, the “R.I. ED50 (relative immobility)” value with mice [3] (i.v., vehicle saline) stood at 0.57 µmol/kg.
As for `CC1=CC[C@@H]2C(C1)c1c(OC(=O)CCCN(C(C)C)C(C)C)cc(C(C)(C)CCCCC(=O)N3CCOCC3)cc1OC2(C)C` (some centres unmarked) [O-2694, Diisopropylaminobutyrate of Δ^8-THC-3-(1,1-dimethyl-6-morpholin-4-yl-6-oxo-hexyl)], the Ki on human CB2 receptor (Tables 2b, 3b, 4a) is 2.77 ± 0.44 nM. The results for the 50% effective dose (ED50) in the experiment with mice [1] (setting [5]), in the experiment with mice [2] (setting [5]) and in the experiment on mice [3] (setting [5]) were 0.035 µmol/kg, 0.12 µmol/kg and 0.11 µmol/kg, respectively.
For `CC1=CC[C@@H]2[C@@H](C1)c1c(O)cc(C(C)(C)CCCCC(=O)N3CCCCCC3)cc1OC2(C)C` [O-2421, Homopiperidino-carboxamido], at human CB2 receptor (Table 1B), the Ki worked out at 3.45 ± 0.58 nM. The median effective dose (ED50) in the experiment on mice [1] (setting [4]) came to 0.16 µmol/kg; in the experiment with mice [2] (iv, vehicle E:E:S (1:1:18)) it was 0.44 µmol/kg; in the experiment with mice [3] (iv, vehicle E:E:S (1:1:18)), 0.86 µmol/kg.
For the compound `CC1=CC[C@@H]2[C@@H](C1)c1c(O)cc(C(C)(C)CCCCC(=O)N3CCCCC3)cc1OC2(C)C` [O-2373, Piperidino-carboxamido], on human CB2 receptor (Table 1B), the inhibition constant (Ki) came out at 0.96 ± 0.01 nM. The ED50 in the experiment with mice [1] (setting [4]) came out at 0.03 µmol/kg; with mice [2] (iv, vehicle E:E:S (1:1:18)), 0.03 µmol/kg; in the experiment with mice [3] (iv, vehicle E:E:S (1:1:18)), 0.04 µmol/kg.
`CC1=CC[C@@H]2[C@@H](C1)c1c(O)cc(C(C)(C)CCCCC(=O)NN3CCCCCC3)cc1OC2(C)C` [O-2489, N-(Homo-piperidin-1-yl)-carboxamido]: the Ki at human CB2 receptor (Table 1B) came to 35.3 ± 4.48 nM. The median effective dose (ED50) in the experiment with mice [1] (setting [4]) was found to be 2.53 µmol/kg; in the experiment on mice [2] (iv, vehicle E:E:S (1:1:18)) it was 8.5 µmol/kg; with mice [3] (iv, vehicle E:E:S (1:1:18)), 20.5 µmol/kg.
For `CC1=CC[C@@H]2[C@@H](C1)c1c(O)cc(C(C)(C)CCCCC(=O)N3CCN(C)CC3)cc1OC2(C)C` [O-2381, Methylepiperazino-carboxamido], in that order: 389 ± 46 nM, 34 µmol/kg, 51 µmol/kg and 183 µmol/kg.
For `CC1=CC[C@@H]2[C@@H](C1)c1c(O)cc(C(C)(C)CCCCC(=O)NN3CCCC3)cc1OC2(C)C` [O-2543, N-(Pyrrolidin-yl)-carboxamido], in that order: 10.8 ± 0.08 nM, 0.75 µmol/kg, 8.19 µmol/kg and 25.8 µmol/kg.
`CC1=CC[C@@H]2[C@@H](C1)c1c(O)cc(C(C)(C)CCCCC(=O)NN3CCOCC3)cc1OC2(C)C` [O-2544, N-(Morpholin-1-yl)-carboxamido]: the Ki on human CB2 receptor (Table 1B) was 11.4 ± 0.91 nM. The ED50 was 0.48 µmol/kg in the experiment with mice [1] (setting [4]); 0.25 µmol/kg in the experiment with mice [2] (iv, vehicle E:E:S (1:1:18)); 0.63 µmol/kg in the experiment on mice [3] (iv, vehicle E:E:S (1:1:18)).
Consider `CC1=CC[C@@H]2[C@@H](C1)c1c(O)cc(C(C)(C)CCCCC(=O)N3CCOCC3)cc1OC2(C)C` [O-2372, Morpholino-carboxamido], for which the inhibition constant Ki at human CB2 receptor (Table 1B) was 0.57 ± 0.04 nM. The median effective dose (ED50) with mice [1] (setting [4]) is 0.01 µmol/kg; in the experiment with mice [2] (iv, vehicle E:E:S (1:1:18)), 0.07 µmol/kg; with mice [3] (iv, vehicle E:E:S (1:1:18)), 0.03 µmol/kg.
`CC1=CC[C@@H]2[C@@H](C1)c1c(O)cc(C(C)(C)CCCCc3ncc[nH]3)cc1OC2(C)C` [O-2737, 1H-Imidazol-2-yl]: on human CB2 receptor (Tables 2b, 3b, 4a), the inhibition constant (Ki) worked out at 14.8 ± 1.14 nM. In addition, the ED50 was greater than 24.5 µmol/kg in the experiment with mice [1] (setting [4]); greater than 2.2 µmol/kg in the experiment on mice [1] (iv, i.v., vehicle saline); greater than 24.5 µmol/kg in the experiment with mice [2] (iv, vehicle E:E:S (1:1:18)); greater than 2.2 µmol/kg in the experiment on mice [2] (iv, vehicle saline); greater than 24.5 µmol/kg with mice [3] (iv, vehicle E:E:S (1:1:18)); greater than 2.2 µmol/kg in the experiment on mice [3] (iv, vehicle saline).
